Laboratory results published in PubChem BioAssay (NCI).
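Dose response: 5 concentrations. Exposure: 48 h. Format: 96-well plates. Endpoint: linear interpolation; highest concentration if not reached. The concentration for 50% growth inhibition is given as GI50. TGI: total growth inhibition.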

How the values were obtained:
Assay in all cases: NCI tumour cell line growth inhibition, 48 h
HCT-116 colon = tested on: HCT-116 colon
HCT-15 colon = tested on: HCT-15 colon
HOP-62 NSCLC = tested on: HOP-62 NSCLC
KM12 colon = tested on: KM12 colon
MDA-MB-231 breast = tested on: MDA-MB-231 breast
MOLT-4 leukemia = tested on: MOLT-4 leukemia
NCI-H522 lung = tested on: NCI-H522 lung
PC-3 prostate = tested on: PC-3 prostate
SK-MEL-5 melanoma = tested on: SK-MEL-5 melanoma
UACC-257 melanoma = tested on: UACC-257 melanoma

| SMILES | GI50 (HCT-116 colon) [nM] | TGI (HCT-116 colon) [µM] | GI50 (HCT-15 colon) [nM] | TGI (HCT-15 colon) [µM] | GI50 (HOP-62 NSCLC) [nM] | TGI (HOP-62 NSCLC) [µM] | GI50 (KM12 colon) [nM] | TGI (KM12 colon) [µM] | GI50 (MDA-MB-231 breast) [µM] | TGI (MDA-MB-231 breast) [µM] | GI50 (MOLT-4 leukemia) [nM] | TGI (MOLT-4 leukemia) [µM] | GI50 (NCI-H522 lung) [nM] | TGI (NCI-H522 lung) [µM] | GI50 (PC-3 prostate) [nM] | TGI (PC-3 prostate) [µM] | GI50 (SK-MEL-5 melanoma) [nM] | TGI (SK-MEL-5 melanoma) [µM] | GI50 (UACC-257 melanoma) [µM] | TGI (UACC-257 melanoma) [µM] |
| --- | --- | --- | --- | --- | --- | --- | --- | --- | --- | --- | --- | --- | --- | --- | --- | --- | --- | --- | --- | --- |
| CCC(=O)Nc1nnc(Cc2ccc(OC)c(OC)c2)s1 | > 100000 | > 100 | > 100000 | > 100 | > 100000 | > 100 | > 100000 | > 100 | > 100 | > 100 | > 100000 | > 100 | > 100000 | > 100 | > 100000 | > 100 | > 100000 | > 100 | > 100 | > 100 |
| Oc1[nH]c2ccccc2c1C=Nc1ccc(-n2cncn2)cc1 | > 22100 | > 25 | 18800 | > 25 | > 13800 | > 22.2 | 991 | > 25 | > 25 | > 25 | 20400 | > 25 | 10700 | > 25 | > 20100 | > 25 | 8740 | > 25 | > 25 | > 25 |
| CSc1ccc(C(=O)/C=C/c2ccc(Cl)cc2Cl)cc1 | 3910 | 14.9 | 29800 | 97.7 | 19600 | 37.5 | 22200 | 51.8 | 27.7 | 86.9 | 16400 | 33.9 | 14400 | 37.2 | 39600 | > 100 | 21900 | 59 | 24 | 91.4 |
| N#Cc1c(N)nc(N2CCOCC2)c(C#N)c1-c1c(Cl)cccc1Cl | 3070 | 12.2 | 4040 | 25.8 | 3520 | 17.8 | 6420 | 77.8 | 3.57 | 15.4 | 5100 | 86.5 | 2360 | 8.38 | 5640 | 31.1 | 7270 | 21 | 5.16 | 30.4 |
| Cc1cc(N(CCNc2ccnc3cc(Cl)ccc23)Cc2ccc3c(c2)OCO3)nc(N2CCCC2)n1 | 532 | 2.14 | 1220 | 3.18 | 1860 | 10.2 | 2700 | 11.5 | 1.28 | 3.27 | 1860 | 7.03 | 1740 | 3.79 | 2850 | 14 | 1760 | 3.21 | 1.64 | 3.24 |
| CCN1C(=O)N(CC)C2C1N=C(SC)N2/N=C/C=C/c1ccccc1OC (stereo not drawn) | 375 | 24.8 | 370 | > 35.7 | 550 | > 45 | 404 | > 39.6 | 0.348 | 10.8 | 457 | > 46.1 | 308 |  | 470 | > 45.3 | 365 | 1.51 | > 32.9 | > 58 |
| COc1cnccc1Nc1nc(-c2nn(Cc3c(F)cc(OCCO)cc3F)c3ccccc23)ncc1OC | 3640 | 20.2 | 2630 | > 100 | 2460 | 8.32 | 3880 | 63.6 | 1.53 | 4.96 | 1550 | > 100 | 1820 | 8.55 | 2550 | > 100 | 2910 | 13 | 4.38 | 17 |
| CCOC(=O)/C=C1/SC(=Nc2ccc(C#N)cc2)N(Cc2ccco2)C1=O | 2060 | 4.97 | 2020 | 5.13 | 2940 | 9.21 | 2130 | 5.01 | 4.29 | 23.5 | 2810 | 8.31 | 1830 | 4.12 | 3110 | 9.96 | 6710 | 20.4 | 5.34 | 18.4 |
| C[C@]12CCC(=O)C[C@@H]1CC[C@@H]1[C@@H]2CC[C@]2(C)[C@@H](OC(=O)N(CCCl)N=O)CC[C@@H]12 | 2890 | > 35.1 | 2260 | 14 | 1750 | 14.1 | 1490 | 6.41 | 9.48 | 24.4 | 145 | > 41.6 | 2480 | 20.4 | 1100 |  | 1050 | 6.16 | 1.14 | 8.58 |
| O=C1/C(=C/c2ccc([N+](=O)[O-])o2)Oc2ccc(Cl)cc21 | 648 | 2.01 | 537 | 2.05 | 4530 | 23.9 | 1880 | 3.68 | 1.77 | 4.12 | 2050 | 6.73 | 1310 | 2.79 | 1920 | 5.08 | 1580 | 3.03 | 1.85 | 4.12 |
